Test results from patent US11801249B1, “Broad-spectrum antitrypanosomal compounds” (KING FAISAL UNIVERSITY, priority 2023, dated 2023).
In brackets after ≈: the same amount, converted by molar mass.

Assays:
Assay in all cases: Antitrypanosomal assay (ATP-based luciferase viability)
Assay type in all cases: cell-based
[1] = system: T. congolense (Tc) IL3000; conditions: Trypanosoma congolense, TcIL3000, mean ± SD; for IC50: 72 h, three days; for inhibition at 0.25 µg/mL: 0.25 μg/ml; for inhibition at 0.25 µg/mL / inhibition at 25 µg/mL: read-out: Inhibition rate; for inhibition at 25 µg/mL: 25 μg/ml
Excerpt: (§1) Six trypanosome species namely T. b. brucei (Tbb) GuTat3.1, T. b. rhodesiense (Tbr) IL1501, T. b. gambiense (Tbg) IL1922, T. evansi (Tev) Tansui, T. equiperdum (Teq) IVM-t1 and T. congolense (Tc) IL3000 were cultivated using HMI-9 medium and used in the study. Following the procedures reported in Suganuma et al. (2014): “Establishment of ATP-based luciferase viability assay in 96-well plate for Trypanosoma congolense”, J Vet Med Sci 76, 1437-41, the trypanocidal activity of the two compounds discussed herein was assessed at 25 μg/ml or […]. […] The IC50 of the compounds against six trypanosome species was determined using serial dilution in a 96-well plate (Optical bottom plate, ThermoFisher SCIENTIFIC, MA, USA). After three days, 25 μL of CellTiter-GIo Luminescent cell viability reagent (Promega Corporation, WI, USA) was aliquoted into each well and luminosity was measured with a GloMax plate reader (Promega Corporation, WI, USA).
(§2) At first, the compounds were assayed at high and low concentrations of […], respectively (Table 3).
(§3) Given the promising initial antitrypanosomal action of the compounds, the IC50 was measured in the presence of several concentrations of the compound.

[2] = system: T. b. brucei (Tbb) GuTat3.1; conditions: Trypanosoma brucei, TbbGUTat3.1, mean ± SD; for IC50: 72 h, three days; for inhibition at 0.25 µg/mL: 0.25 μg/ml; for inhibition at 0.25 µg/mL / inhibition at 25 µg/mL: read-out: Inhibition rate; for inhibition at 25 µg/mL: 25 μg/ml
Excerpt: as §1, §2, §3

[3] = system: T. equiperdum (Teq) IVM-t1; conditions: Trypanosoma equiperdum, mean ± SD; for inhibition at 0.25 µg/mL: 0.25 μg/ml; for inhibition at 0.25 µg/mL / inhibition at 25 µg/mL: read-out: Inhibition rate; for inhibition at 25 µg/mL: 25 μg/ml; for IC50: 72 h, three days
Excerpt: as §1, §2, §3

[4] = system: T. b. rhodesiense (Tbr) IL1501; conditions: Trypanosoma brucei, mean ± SD; for IC50: 72 h, TbrIL1501, three days; for inhibition at 0.25 µg/mL: TbrIL1501, 0.25 μg/ml; for inhibition at 0.25 µg/mL / inhibition at 25 µg/mL: read-out: Inhibition rate; for inhibition at 25 µg/mL: TbrIL1501, 25 μg/ml
Excerpt: as §1, §2, §3

[5] = system: T. b. gambiense (Tbg) IL1922; conditions: Trypanosoma brucei, mean ± SD; for IC50: 72 h, TbgIL1922, three days; for inhibition at 0.25 µg/mL: TbgIL1922, 0.25 μg/ml; for inhibition at 0.25 µg/mL / inhibition at 25 µg/mL: read-out: Inhibition rate; for inhibition at 25 µg/mL: TbgIL1922, 25 μg/ml
Excerpt: as §1, §2, §3

T. evansi (Tev) Tansui = conditions: Trypanosoma evansi, mean ± SD; for inhibition at 0.25 µg/mL: 0.25 μg/ml; for inhibition at 0.25 µg/mL / inhibition at 25 µg/mL: read-out: Inhibition rate; for inhibition at 25 µg/mL: 25 μg/ml; for IC50: 72 h, three days
Excerpt: as §1, §2, §3

Structure (SMILES)	IC50 [1]	inhibition at 0.25 µg/mL [1]	inhibition at 25 µg/mL [1]	IC50 [2]	inhibition at 0.25 µg/mL [2]	inhibition at 25 µg/mL [2]	inhibition at 0.25 µg/mL [3]	inhibition at 25 µg/mL [3]	IC50 [3]	IC50 [4]	inhibition at 0.25 µg/mL [4]	inhibition at 25 µg/mL [4]	IC50 [5]	inhibition at 0.25 µg/mL [5]	inhibition at 25 µg/mL [5]	inhibition at 0.25 µg/mL (T. evansi (Tev) Tansui)	inhibition at 25 µg/mL (T. evansi (Tev) Tansui)	IC50 (T. evansi (Tev) Tansui)
Fc1ccc(-c2cn[nH]c2C2CCCN(c3ncnc4[nH]ccc34)C2)cc1 (stereo not drawn) [Compound 1, 4-{3-[4-(4-fluorophenyl)-1H-pyrazol-5-yl]piperidin-1-yl}-7H-pyrrolo[2,3-d]pyrimidine]	2.65 ± 0.47 µg/mL (≈ 7.31 µM)	8.85 ± 9.99%	98.64 ± 0.16%	3.53 ± 0.67 µg/mL (≈ 9.74 µM)	13.2 ± 4.07%	99.38 ± 0.02%	4.26 ± 6.01%	99.22 ± 0.01%	10.3 ± 0.36 µg/mL (≈ 28.4 µM)	5.56 ± 0.13 µg/mL (≈ 15.3 µM)	15.9 ± 11.1%	99.34 ± 0.01%	3.51 ± 0.9 µg/mL (≈ 9.69 µM)	2.82 ± 3.98%	99.01 ± 0.01%	9.14 ± 6.02%	99.1 ± 0.46%	13.3 ± 3.36 µg/mL (≈ 36.8 µM)
Fc1ccc(-c2cn[nH]c2C2CCCN(c3ncnc4[nH]cnc34)C2)cc1 (stereo not drawn) [Compound 2, 6-{3-[4-(4-fluorophenyl)-1H-pyrazol-5-yl]piperidin-1-yl}-9H-purine]	2.77 ± 0.57 µg/mL (≈ 7.62 µM)	8.09 ± 6.96%	98.01 ± 0.2%	3.66 ± 0.77 µg/mL (≈ 10.1 µM)	13.9 ± 3.11%	99.03 ± 0.02%	5.2 ± 4.11%	98.62 ± 0.05%	9.12 ± 0.8 µg/mL (≈ 25.1 µM)	4.65 ± 0.25 µg/mL (≈ 12.8 µM)	11.3 ± 6.63%	98.64 ± 0.02%	3.11 ± 0.88 µg/mL (≈ 8.56 µM)	1.82 ± 1.45%	98.21 ± 0.02%	6.14 ± 7.12%	98.7 ± 0.04%	9.26 ± 1.2 µg/mL (≈ 25.5 µM)
